Experiments:
[1] = target: T1, Oxysterols receptor LXR-beta (Homo sapiens, UniProt P55055); format: functional
T1 sequence (P55055 whole entry): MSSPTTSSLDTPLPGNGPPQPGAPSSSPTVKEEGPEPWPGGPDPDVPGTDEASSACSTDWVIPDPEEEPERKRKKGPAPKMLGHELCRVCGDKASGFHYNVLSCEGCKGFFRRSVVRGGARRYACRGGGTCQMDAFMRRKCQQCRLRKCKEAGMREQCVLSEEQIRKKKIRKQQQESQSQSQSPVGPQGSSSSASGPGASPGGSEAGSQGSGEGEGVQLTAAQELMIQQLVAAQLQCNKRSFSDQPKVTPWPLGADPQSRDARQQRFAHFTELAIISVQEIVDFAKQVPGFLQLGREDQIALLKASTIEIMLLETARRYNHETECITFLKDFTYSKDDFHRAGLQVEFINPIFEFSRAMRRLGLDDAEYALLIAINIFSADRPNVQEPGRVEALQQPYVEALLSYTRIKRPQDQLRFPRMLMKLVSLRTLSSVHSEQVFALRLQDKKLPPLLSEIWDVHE

[2] = target: T2, Glucocorticoid receptor (Homo sapiens, UniProt P04150); format: functional
T2 sequence (P04150 whole entry): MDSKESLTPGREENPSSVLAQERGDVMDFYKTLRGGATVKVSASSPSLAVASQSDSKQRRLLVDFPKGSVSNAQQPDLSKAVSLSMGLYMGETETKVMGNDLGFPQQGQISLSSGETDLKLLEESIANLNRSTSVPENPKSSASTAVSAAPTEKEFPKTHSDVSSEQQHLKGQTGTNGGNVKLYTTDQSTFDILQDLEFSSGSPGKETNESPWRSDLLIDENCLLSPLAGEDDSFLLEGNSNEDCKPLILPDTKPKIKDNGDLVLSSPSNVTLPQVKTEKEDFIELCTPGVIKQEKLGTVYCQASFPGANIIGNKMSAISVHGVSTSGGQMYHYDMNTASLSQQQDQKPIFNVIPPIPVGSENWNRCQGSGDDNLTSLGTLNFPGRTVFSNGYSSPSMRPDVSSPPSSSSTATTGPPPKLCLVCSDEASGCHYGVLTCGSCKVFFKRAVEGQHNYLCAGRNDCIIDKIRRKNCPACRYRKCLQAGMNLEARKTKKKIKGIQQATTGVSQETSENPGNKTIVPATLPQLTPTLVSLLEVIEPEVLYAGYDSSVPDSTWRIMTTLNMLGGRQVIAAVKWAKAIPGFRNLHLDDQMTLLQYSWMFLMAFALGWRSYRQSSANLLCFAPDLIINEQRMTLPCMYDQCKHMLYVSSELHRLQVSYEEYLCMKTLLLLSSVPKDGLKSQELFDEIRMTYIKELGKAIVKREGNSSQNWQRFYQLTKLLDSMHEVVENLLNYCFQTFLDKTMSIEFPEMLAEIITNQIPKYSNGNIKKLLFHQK

[3] = target: T2, Glucocorticoid receptor; format: functional; remark: listed apart in the source
[4] = target: T3, Alpha-1A adrenergic receptor (Homo sapiens, UniProt P35348); format: functional, cell-based
T3 sequence (P35348 whole entry): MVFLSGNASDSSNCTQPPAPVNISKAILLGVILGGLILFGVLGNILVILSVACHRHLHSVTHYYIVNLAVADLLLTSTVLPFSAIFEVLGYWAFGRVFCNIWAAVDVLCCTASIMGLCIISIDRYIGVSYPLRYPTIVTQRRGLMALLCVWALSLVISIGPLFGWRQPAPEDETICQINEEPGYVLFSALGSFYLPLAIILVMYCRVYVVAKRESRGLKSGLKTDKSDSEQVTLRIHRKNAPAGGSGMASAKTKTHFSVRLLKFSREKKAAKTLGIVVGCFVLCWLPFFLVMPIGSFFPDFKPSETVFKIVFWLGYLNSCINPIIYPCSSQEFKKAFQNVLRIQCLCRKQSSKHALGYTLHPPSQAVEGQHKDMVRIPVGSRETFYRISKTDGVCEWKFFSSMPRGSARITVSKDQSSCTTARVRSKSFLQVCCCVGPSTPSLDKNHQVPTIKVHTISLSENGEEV

[5] = target: T4, Androgen receptor (Homo sapiens, UniProt P10275)
T4 sequence (P10275 whole entry): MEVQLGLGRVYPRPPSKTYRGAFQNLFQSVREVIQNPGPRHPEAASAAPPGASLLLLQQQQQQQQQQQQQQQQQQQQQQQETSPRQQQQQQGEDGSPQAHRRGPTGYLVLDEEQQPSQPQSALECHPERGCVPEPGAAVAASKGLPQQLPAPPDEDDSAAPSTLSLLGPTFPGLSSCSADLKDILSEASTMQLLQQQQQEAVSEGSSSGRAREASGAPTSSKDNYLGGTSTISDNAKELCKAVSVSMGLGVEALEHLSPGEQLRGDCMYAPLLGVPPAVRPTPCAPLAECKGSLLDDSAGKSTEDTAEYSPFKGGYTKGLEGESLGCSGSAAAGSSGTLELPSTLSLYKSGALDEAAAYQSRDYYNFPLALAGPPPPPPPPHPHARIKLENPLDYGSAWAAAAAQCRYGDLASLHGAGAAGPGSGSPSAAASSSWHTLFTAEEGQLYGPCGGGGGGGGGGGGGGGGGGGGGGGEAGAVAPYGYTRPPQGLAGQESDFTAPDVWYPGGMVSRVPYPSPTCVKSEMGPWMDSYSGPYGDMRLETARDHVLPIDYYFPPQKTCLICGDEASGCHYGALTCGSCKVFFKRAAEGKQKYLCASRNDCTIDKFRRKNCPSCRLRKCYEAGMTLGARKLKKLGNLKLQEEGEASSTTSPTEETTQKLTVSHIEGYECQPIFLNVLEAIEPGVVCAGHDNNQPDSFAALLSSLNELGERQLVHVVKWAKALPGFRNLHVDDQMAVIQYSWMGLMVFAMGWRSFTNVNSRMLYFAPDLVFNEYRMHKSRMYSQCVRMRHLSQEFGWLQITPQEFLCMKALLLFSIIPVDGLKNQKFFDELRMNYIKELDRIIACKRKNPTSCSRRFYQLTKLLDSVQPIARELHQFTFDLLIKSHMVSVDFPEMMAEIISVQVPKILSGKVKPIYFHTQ

[6] = target: Sodium-dependent serotonin transporter (Homo sapiens, UniProt P31645)
Chain of Sodium-dependent serotonin transporter (P31645 whole entry): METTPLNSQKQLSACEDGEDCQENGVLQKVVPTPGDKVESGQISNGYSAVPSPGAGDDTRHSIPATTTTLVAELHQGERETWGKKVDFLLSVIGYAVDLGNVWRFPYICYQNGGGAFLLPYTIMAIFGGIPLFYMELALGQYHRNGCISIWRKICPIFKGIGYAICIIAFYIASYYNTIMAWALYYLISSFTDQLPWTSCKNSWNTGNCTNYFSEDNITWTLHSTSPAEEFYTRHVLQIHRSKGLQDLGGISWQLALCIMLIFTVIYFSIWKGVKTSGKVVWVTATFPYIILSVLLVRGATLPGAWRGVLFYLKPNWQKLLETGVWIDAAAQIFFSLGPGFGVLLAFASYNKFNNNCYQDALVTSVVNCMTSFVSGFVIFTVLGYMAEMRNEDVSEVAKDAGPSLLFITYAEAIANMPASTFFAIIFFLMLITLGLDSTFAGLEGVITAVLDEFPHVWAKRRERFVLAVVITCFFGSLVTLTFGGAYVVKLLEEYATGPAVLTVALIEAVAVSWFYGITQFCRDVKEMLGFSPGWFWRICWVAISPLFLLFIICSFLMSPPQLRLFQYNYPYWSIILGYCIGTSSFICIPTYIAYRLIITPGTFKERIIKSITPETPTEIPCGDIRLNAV
Note: assay procedure not described here.

CC(C)c1c(C(=O)Nc2ccccc2)c(-c2ccccc2)c(-c2ccc(F)cc2)n1CC[C@@H](O)C[C@@H](O)CC(=O)O [ATORVASTATIN]
AC50 [1]: > 30 µM

[H]/N=C(/N)c1ccc(NCc2nc3cc(C(=O)N(CCC(=O)O)c4ccccn4)ccc3n2C)cc1 [DABIGATRAN]
AC50 [2]: > 30 µM | AC50 [3]: > 30 µM

Nc1nc2ccc(OC(F)(F)F)cc2s1 [RILUZOLE]
AC50 [4]: > 30 µM

BIVALIRUDIN
AC50 [5]: > 30 µM | AC50 [6]: > 30 µM
